Reference: patent US20240391931A1 (Bristol-Myers Squibb Company, priority 2021, published 2024)
Structures can show the parent of a compound that is named as a salt.

Key:
[1] = biological target: HER2YVMA (Homo sapiens, UniProt P04626, INS775YVMA); test: Enzymatic assay HER2YVMA (method b); format: biochemical; design: purchased Viva biotech, Shanghai, China custom purification; conditions: [HER2YVMA]=5 nM, [ATP]=25 μM, [Peptide 22]=1 μM
Description: (§1) A 2× stock solution of HER2 WT (ERBB2 0108-0000-1; ProQinase, Freiburg, Germany) corresponding to method a, was prepared as described below. Alternatively, a 2× stock solution of HER2YVMA (custom purification; Viva biotech, Shanghai, China) corresponding to method b, was prepared as described below. For method c, a 2× stock of EGFR (ERBB1 PR7295B, Thermo Fisher, Carlsbad, CA) was prepared as described below. All 2× solutions were prepared in buffer containing 50 mM HEPES, pH 7.5, 10 mM MnCl2, MgCl2, 0.005% Tween 20, 1 mM TCEP. 25 ul of 2× enzyme solution was added to a Seahorse low volume 384-well polypropylene assay plate (201288-100, Seahorse Bioscience, Chicopee, MA) containing 1 μl of compound serially diluted in 50% DMSO. To initiate the reaction, 25 μl of solution containing 2× final concentration of ATP and ProfilerPro Peptide 22 (760366, Perkin Elmer Hopkinton, MA) was added to each well. The reactions were separated on an LC3000 (Caliper Life Sciences) or a LabChip EZReader (Perkin Elmer) in kinetic mode.
(§2) At the conclusion of each assay, the data were exported from the instrument as a .rda file (LC3000) and processed in proprietary software, EZReviewer, which determines the percent of substrate converted to product within a given cycle as (P/P+S)*100 by measuring the amplitude of substrate and product peaks. Cycle time varied with amount of compounds tested between 8 and 12 cycles. Initial velocity (0-3600 s) from each reaction was determined from the slope of a plot of percent conversion at each cycle versus time (seconds). Percent inhibition was determined by dividing the slope of each reaction by the uninhibited control using 100*(1-(x/uninhibited control)). IC50 estimates were obtained by plotting the concentration of inhibitor versus percent inhibition in GraphPad Prism (GraphPad Software, San Diego, CA) using log[inhibitor] versus Response (Variable Slope Model); Y=Min+((Max-Min)/(1+((IC50/x)^Hillslope)))
(§3) • a) [HER2 WT]=12.5 nM, [ATP]=25 μM, [Peptide 22]=1 μM (ATP KMapp˜25 μM) • b) [HER2YVMA]=5 nM, [ATP]=25 μM, [Peptide 22]=1 μM (ATP KMapp˜15 μM) • c) [EGFR WT]=2 nM, [ATP]=1 mM, [Peptide 22]=1 μM (ATP KMapp˜25 μM)

[2] = biological target: T1, HER2 wildtype (WT) protein (Homo sapiens, UniProt P04626); test: HER2 signaling (pHER2 Tyr1248/total HER2 MSD) in BT474 cells; format: cell-based; conditions: 1.5 hr compound, 1% FBS
T1 construct: BT474 and N87 cell lines which endogenously overexpress the HER2 wildtype (WT) protein; endogenous in cells; host or cells: BT474, N87
Description: In addition to the engineered cell lines, the following cell lines were used: BT474 (human breast carcinoma), N87 (human gastric carcinoma), NCI-H1781 (human lung adenocarcinoma), and A431 (human epidermoid carcinoma); all cell lines were obtained from the American Type Culture Collection (ATCC, Manassas, VA). NCI-H1781 were grown in complete RPMI 1640 (Life Technologies, Carlsbad, CA) supplemented with 15% fetal bovine serum (FBS, Life Technologies, Carlsbad, CA) and 1% Penicillin-Streptomycin (P/S, Life Technologies, Carlsbad, CA). N87 cells were grown in complete RPMI 1640 supplemented with 10% FBS and 1% P/S. BT474 and A431 cells were grown in DMEM (Life Technologies, Carlsbad, CA) supplemented with 10% FBS and 1% P/S. All cells were maintained and propagated in a humidified 5% CO2 incubator at 37° C.
HER2 signaling was assessed in BT474 and N87 cell lines which endogenously overexpress the HER2 wildtype (WT) protein, in NCI-H1781 cells which endogenously expresses a HER2 mutant protein containing a VC insertion in the kinase domain (HER2VC or G776delinsVC), and in engineered cell lines transduced to express the Her2 mutant protein containing the YVMA insertion (Hek293-HER2YVMA and BEAS2B-HER2YVMA).
BT474, N87, and NCI-H1781 were plated in 96-well tissue-culture treated plates (Corning Costar, Sigma-Aldrich) in full media and incubated overnight. Hek293-HER2YVMA and BEAS2B-HER2YVMA cells were plated in 96-well poly-D-lysine treated plates (BD Bioscience, San Jose, CA). For treatment with test compounds, the media was replaced with corresponding low serum media (1% FBS) containing test compound at 1.1, 0.37, 0.12, 0.041, 0.014, 0.005, 0.0014, 0.0005 μM or DMSO control (0.1%). Cells were incubated with compound for 1.5 hr at 37° C. After compound treatment, the media was removed and cells were lysed for 30 min on ice in complete MSD lysis buffer (prepared using MSD base lysis buffer (Meso-Scale Discovery) supplemented with cOmplete, EDTA-free Protease inhibitor cocktail (Roche), Phosphatase Inhibitor Cocktails 2 and 3 (Sigma-Aldrich), and 1 mM PMSF (Sigma-Aldrich)). Lysates were stored at −70° C. until further analysis.
HER2 signaling was evaluated using phospho (Tyr1248)/total ErbB2 whole cell lysate MSD plates (Meso-Scale Discovery, Gaithersburg, MD). The phospho HER2 signal was normalized to total HER2 for each sample; results are reported as % DMSO control. The normalized data was fitted using a sigmoidal curve analysis program (Graph Pad Prism version 6) with variable Hill slope to determine EC50 values.
The HER2 signaling results are provided in Table 4, under columns titled “BT474-pHER2 EC50”, “N87-pHER2 EC50”, and “NCI-H1781-pHER2 EC50”. Hek293-HER2YVMA ins fall under the heading “HEKYVMA-pHER2 EC50”, Ba/F3 HER2YVMA fall under the heading “Ba/F3 YVMA-pHER2 EC50” and BEAS2B-HER2YVMA fall under the heading “BEAS2B YVMA-pHER2 EC50”.

[3] = biological target: T2, HER2 WT (Homo sapiens, UniProt P04626); test: Enzymatic assay HER2 WT (method a); format: biochemical; conditions: [HER2 WT]=12.5 nM, [ATP]=25 μM, [Peptide 22]=1 μM
T2 construct: purchased ProQinase, Freiburg, Germany ERBB2 0108-0000-1
Description: as §1, §2, §3

[4] = biological target: T3, EGFR WT (Homo sapiens, UniProt P00533); test: Enzymatic assay EGFR WT (method c); format: biochemical; conditions: [EGFR WT]=2 nM, [ATP]=1 mM, [Peptide 22]=1 μM
T3 construct: purchased Thermo Fisher, Carlsbad, CA ERBB1 PR7295B
Description: as §1, §2, §3

HER2YVMA, sequence (P04626 with tags, fused parts or gaps INS775YVMA): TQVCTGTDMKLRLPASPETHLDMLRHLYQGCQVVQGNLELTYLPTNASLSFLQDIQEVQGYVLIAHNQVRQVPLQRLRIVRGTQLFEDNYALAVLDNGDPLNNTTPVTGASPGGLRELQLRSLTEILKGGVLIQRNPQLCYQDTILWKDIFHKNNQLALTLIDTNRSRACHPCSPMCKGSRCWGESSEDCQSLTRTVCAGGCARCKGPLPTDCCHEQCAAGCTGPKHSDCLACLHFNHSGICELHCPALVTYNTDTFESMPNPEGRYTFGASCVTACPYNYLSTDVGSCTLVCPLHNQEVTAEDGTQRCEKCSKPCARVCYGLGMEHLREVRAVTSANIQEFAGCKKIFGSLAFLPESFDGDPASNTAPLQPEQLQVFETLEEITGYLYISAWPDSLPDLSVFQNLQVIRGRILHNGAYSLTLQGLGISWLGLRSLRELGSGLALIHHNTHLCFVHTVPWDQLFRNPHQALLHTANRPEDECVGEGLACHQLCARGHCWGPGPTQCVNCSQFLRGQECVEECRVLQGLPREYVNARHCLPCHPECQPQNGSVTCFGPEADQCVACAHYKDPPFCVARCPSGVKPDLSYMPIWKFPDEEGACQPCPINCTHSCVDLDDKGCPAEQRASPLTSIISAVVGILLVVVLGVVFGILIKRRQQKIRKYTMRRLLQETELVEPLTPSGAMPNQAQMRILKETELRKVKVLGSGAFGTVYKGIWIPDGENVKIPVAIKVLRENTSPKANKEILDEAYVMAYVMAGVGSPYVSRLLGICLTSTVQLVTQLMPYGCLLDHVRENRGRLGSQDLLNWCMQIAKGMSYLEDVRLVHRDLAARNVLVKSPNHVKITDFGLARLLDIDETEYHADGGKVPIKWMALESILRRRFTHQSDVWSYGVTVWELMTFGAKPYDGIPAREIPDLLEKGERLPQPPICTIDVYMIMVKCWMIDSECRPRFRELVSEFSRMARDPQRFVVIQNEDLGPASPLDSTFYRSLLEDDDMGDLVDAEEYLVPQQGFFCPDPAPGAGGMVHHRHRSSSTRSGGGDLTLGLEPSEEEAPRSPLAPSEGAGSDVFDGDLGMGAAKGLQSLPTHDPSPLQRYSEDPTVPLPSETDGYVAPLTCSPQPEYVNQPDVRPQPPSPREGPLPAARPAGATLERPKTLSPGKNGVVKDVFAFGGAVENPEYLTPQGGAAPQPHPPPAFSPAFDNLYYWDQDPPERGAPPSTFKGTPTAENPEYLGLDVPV
T1 sequence (P04626 23-1255): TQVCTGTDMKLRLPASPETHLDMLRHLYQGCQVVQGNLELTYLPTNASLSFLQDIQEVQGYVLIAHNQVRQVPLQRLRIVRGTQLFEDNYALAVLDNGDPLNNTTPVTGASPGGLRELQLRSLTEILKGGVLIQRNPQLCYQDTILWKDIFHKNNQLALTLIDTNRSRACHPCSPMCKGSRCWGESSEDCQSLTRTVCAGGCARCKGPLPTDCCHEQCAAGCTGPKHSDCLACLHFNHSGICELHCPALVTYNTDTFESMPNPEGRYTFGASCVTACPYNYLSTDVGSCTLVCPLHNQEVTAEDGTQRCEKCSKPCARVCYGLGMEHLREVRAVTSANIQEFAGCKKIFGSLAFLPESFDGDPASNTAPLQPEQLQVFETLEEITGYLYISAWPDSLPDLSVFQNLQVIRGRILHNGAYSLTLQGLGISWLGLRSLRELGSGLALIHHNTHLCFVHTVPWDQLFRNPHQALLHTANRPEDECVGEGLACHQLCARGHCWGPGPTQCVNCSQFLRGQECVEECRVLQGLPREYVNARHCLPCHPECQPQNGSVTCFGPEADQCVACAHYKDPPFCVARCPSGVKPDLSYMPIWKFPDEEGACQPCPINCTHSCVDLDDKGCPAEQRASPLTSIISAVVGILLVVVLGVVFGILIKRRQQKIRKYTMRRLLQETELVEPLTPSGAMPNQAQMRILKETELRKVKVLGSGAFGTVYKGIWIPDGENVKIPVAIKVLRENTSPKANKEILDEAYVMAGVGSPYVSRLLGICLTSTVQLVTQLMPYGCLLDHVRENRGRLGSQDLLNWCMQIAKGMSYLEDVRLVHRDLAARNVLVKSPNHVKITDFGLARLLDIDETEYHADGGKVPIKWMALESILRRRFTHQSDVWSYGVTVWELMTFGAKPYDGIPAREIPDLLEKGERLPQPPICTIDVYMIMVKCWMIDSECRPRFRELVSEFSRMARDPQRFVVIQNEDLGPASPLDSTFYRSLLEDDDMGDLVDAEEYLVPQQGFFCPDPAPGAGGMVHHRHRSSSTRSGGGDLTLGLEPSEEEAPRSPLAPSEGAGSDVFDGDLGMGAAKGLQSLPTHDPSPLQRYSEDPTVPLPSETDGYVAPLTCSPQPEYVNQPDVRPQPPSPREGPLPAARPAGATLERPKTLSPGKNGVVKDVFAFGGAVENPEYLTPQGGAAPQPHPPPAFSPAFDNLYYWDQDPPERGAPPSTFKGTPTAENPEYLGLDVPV
T2 sequence (P04626 23-1255): as above
T3 sequence (P00533 25-1210): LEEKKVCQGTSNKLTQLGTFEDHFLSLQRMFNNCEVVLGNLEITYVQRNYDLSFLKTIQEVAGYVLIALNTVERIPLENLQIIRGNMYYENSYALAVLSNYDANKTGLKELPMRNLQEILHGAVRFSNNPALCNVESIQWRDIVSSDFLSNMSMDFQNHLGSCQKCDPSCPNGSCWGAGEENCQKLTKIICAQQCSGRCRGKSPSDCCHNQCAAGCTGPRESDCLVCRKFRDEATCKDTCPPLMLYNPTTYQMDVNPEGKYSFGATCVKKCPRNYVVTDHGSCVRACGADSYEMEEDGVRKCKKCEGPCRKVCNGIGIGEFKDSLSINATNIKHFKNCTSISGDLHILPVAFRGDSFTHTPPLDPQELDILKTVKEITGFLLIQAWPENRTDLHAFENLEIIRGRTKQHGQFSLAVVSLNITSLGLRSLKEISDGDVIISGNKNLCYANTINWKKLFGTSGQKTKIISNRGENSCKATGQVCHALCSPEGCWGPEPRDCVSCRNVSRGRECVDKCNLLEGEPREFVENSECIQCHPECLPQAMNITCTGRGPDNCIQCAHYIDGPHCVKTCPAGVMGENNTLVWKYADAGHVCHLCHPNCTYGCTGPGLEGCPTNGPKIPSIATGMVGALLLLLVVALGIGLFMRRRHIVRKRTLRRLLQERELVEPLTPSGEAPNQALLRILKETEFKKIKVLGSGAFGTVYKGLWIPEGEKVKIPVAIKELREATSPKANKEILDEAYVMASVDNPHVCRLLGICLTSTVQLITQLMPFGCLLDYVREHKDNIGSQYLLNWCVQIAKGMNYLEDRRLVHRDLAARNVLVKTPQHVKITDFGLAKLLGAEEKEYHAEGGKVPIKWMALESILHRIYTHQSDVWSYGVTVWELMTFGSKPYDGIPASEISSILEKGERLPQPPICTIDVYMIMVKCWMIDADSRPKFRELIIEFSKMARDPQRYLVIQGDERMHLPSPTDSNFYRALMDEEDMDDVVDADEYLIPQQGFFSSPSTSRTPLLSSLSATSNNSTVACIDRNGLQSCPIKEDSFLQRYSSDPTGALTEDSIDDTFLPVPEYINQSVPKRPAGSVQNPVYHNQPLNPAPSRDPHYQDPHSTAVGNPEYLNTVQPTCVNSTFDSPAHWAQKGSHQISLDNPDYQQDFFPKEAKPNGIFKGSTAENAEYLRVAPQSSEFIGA

IC50 [1] [nM] | EC50 [2] [nM] | IC50 [3] [nM] | IC50 [4] [nM] | Compound
< 100 | < 100 | < 100 | > 10000 | Cc1ccc(Oc2ccc(Nc3ncnc4sc5c(c34)C[C@@H](C)N(C(=O)/C=C/CN(C)C)[C@H]5C)cc2C)cn1 (racemic) [Compound 149, (E)-1-(6,8-cis-dimethyl-4-((3-methyl-4-((6-methylpyridin-3-yl)oxy)phenyl)amino)-5,8-dihydropyrido[4′,3′:4,5]thieno[2,3-d]pyrimidin-7(6H)-yl)-4-(dimethylamino)but-2-en-1-one]
100 to 1000 | < 100 | 100 to 1000 | > 10000 | Cc1ccc(Oc2ccc(Nc3ncnc4sc5c(c34)C[C@@H](C)N(C(=O)/C=C/CN(C)C)[C@@H]5C)cc2C)cn1 (racemic) [Compound 165, (E)-1-(6,8-trans-dimethyl-4-((3-methyl-4-((6-methylpyridin-3-yl)oxy)phenyl)amino)-5,8-dihydropyrido[4′,3′:4,5]thieno[2,3-d]pyrimidin-7(6H)-yl)-4-(dimethylamino)but-2-en-1-one]
100 to 1000 | < 100 | 100 to 1000 | > 10000 | C=CC(=O)N1[C@H](C)Cc2c(sc3ncnc(Nc4ccc(Oc5ccc(C)nc5)c(C)c4)c23)[C@H]1C (racemic) [Compound 166, 1-(6,8-trans-dimethyl-4-((3-methyl-4-((6-methylpyridin-3-yl)oxy)phenyl)amino)-5,8-dihydropyrido[4′,3′:4,5]thieno[2,3-d]pyrimidin-7(6H)-yl)prop-2-en-1-one]
< 100 | < 100 | < 100 | > 10000 | Cc1ccc(Oc2ccc(Nc3ncnc4sc5c(c34)C(C)N(C(=O)C=CCN(C)C)C5)cc2C)cn1 (single isomer, unassigned) [Compound 147]
1000 to 10000 | 100 to 350 | 1000 to 10000 | > 10000 | Cc1ccc(Oc2ccc(Nc3ncnc4sc5c(c34)C(C)N(C(=O)C=CCN(C)C)C5)cc2C)cn1 (single isomer, unassigned) [Compound 148]
100 to 1000 | < 100 | 100 to 1000 | > 10000 | COc1ccc(Oc2ccc(Nc3ncnc4sc5c(c34)C(C)CN(C(=O)C=CCN(C)C)C5)cc2C)cn1 (single isomer, unassigned) [Compound 159]
< 100 | < 100 | < 100 | > 10000 | COc1ccc(Oc2ccc(Nc3ncnc4sc5c(c34)C(C)CN(C(=O)C=CCN(C)C)C5)cc2C)cn1 (single isomer, unassigned) [Compound 160]
< 100 | < 100 | < 100 | > 10000 | Cc1ccc(Oc2ccc(Nc3ncnc4sc5c(c34)CC(C)N(C(=O)C=CCN(C)C)C5C)cc2C)cn1 (single isomer, unassigned) [Compound 161]
1000 to 10000 | 100 to 350 | 1000 to 10000 | > 10000 | Cc1ccc(Oc2ccc(Nc3ncnc4sc5c(c34)CC(C)N(C(=O)C=CCN(C)C)C5C)cc2C)cn1 (single isomer, unassigned) [Compound 162]
< 100 | < 100 | < 100 | > 10000 | Cc1ccc(Oc2ccc(Nc3ncnc4sc5c(c34)CN(C(=O)C=CCN(C)C)C5C)cc2C)cn1 (single isomer, unassigned) [Compound 169]
1000 to 10000 | 350 to 1000 | 1000 to 10000 | > 10000 | Cc1ccc(Oc2ccc(Nc3ncnc4sc5c(c34)CN(C(=O)C=CCN(C)C)C5C)cc2C)cn1 (single isomer, unassigned) [Compound 170]
100 to 1000 | < 100 | 100 to 1000 | > 10000 | Cc1ccc(Oc2ccc(Nc3ncnc4sc5c(c34)C(C)CN(C(=O)C=CCN3CCOCC3)C5)cc2C)cn1 (single isomer, unassigned) [Compound 176]
< 100 | < 100 | < 100 | > 10000 | Cc1ccc(Oc2ccc(Nc3ncnc4sc5c(c34)C(C)CN(C(=O)C=CCN3CCOCC3)C5)cc2C)cn1 (single isomer, unassigned) [Compound 177]
100 to 1000 | < 100 | 100 to 1000 | > 10000 | Cc1ccc(Oc2ccc(Nc3ncnc4sc5c(c34)C(C)CN(C(=O)C=CCN(C)C(C)(C)C)C5)cc2C)cn1 (single isomer, unassigned) [Compound 178]
< 100 | < 100 | < 100 | > 10000 | Cc1ccc(Oc2ccc(Nc3ncnc4sc5c(c34)C(C)CN(C(=O)C=CCN(C)C(C)(C)C)C5)cc2C)cn1 (single isomer, unassigned) [Compound 179]

Compound | IC50 [1] [nM] | EC50 [2] [nM] | IC50 [3] [nM] | IC50 [4] [nM]
C=CC(=O)N1Cc2sc3ncnc(Nc4ccc(Oc5ccc(C)nc5)c(C)c4)c3c2C(C)C1 (single isomer, unassigned) [Compound 145] | < 100 | < 100 | < 100 | > 10000
C=CC(=O)N1Cc2sc3ncnc(Nc4ccc(Oc5ccc(C)nc5)c(C)c4)c3c2C(C)C1 (single isomer, unassigned) [Compound 146] | < 100 | < 100 | < 100 | 1000 to 10000
Cc1ccc(Oc2ccc(Nc3ncnc4sc5c(c34)CCN(C(=O)/C=C/CN3CC4CCC(C4)C3)C5)cc2C)cn1 [Compound 16, (E)-4-(3-azabicyclo[3.2.1]octan-3-yl)-1-(4-((3-methyl-4-((6-methylpyridin-3-yl)oxy)phenyl)amino)-5,8-dihydropyrido[4′,3′:4,5]thieno[2,3-d]pyrimidin-7(6H)-yl)but-2-en-1-one benzenesulfonate salt] | < 100 | < 100 | < 100 | –
